We go through two molecules from publication PMC4016869, “In Search of the Active Metabolites of an Anticancer Piperazinedione, TW01003, in Rats” (BioMed Research International, 2014).

Counter-ions that a name gives are not always drawn.

Data set [1] can be described thus: Pharmacokinetics of TW01003 and TW01003 sulfate after i.v. administration of TW01003 in Wistar rats. The class given is in vivo, rat. To be noted: for Cmax / MRT inf / Vd / clearance / half-life: male, rat, iv; for Cmax / MRT inf / Vd / clearance / half-life / AUMCINF / AUCINF / AUCall: plasma, i.v. TW01003 2.0 mg/kg; for Cmax / MRT inf / Vd / clearance / half-life / AUMCINF: n = 6, mean ± SD; for AUCINF: n = 6, time 0 to infinite; for AUCINF / AUCall: mean ± SD; for AUCall: n = 6, time 0 to last sampling time. How it is done:
Single-dose TW01003 in a solution (1 mL) containing a 9 : 1 (v/v) ratio of vehicle V : 10% Na2CO3(aq) was used for animal studies in pig or in male Wistar rats. For metabolic studies, the TW01003 test solution was administered intravenously (7 mg/kg, n = 1) to the tail vein or orally (36 mg/kg, n = 1) by a feeding tube. For pharmacokinetic studies, the test solution was administered intravenously to the tail vein of Wistar rats (2.0 mg/kg, 1 mL, n = 6). The rats were put under a heating lamp to maintain body temperatures at 37°C throughout the experiment. All procedures involving the use of animals were approved by the Institutional Animal Care and Use Committee of Taipei Medical University.
Blood samples (0.5 mL) were withdrawn from the carotid artery of rats at time intervals of 5, 15, 30, 45, 60, 90, 120, 180, and 240 min. Heparin sodium (25 IU/mL in 0.3 mL of saline) was added, and the blood samples were centrifuged (5,585 g) at 4°C for 8 min. The plasma was frozen immediately and kept at −78°C until analysis. The plasma sample (150 μL) was mixed with a sulfatase solution (200 IU/mL, 50 μL) at 37°C for 2 h. The plasma sample (150 μL) mixed with 50 μL of a buffer solution (pH 5.0) was used for the control group. The internal standard solution was then added, and the solution was centrifuged (5,585 g) for 10 min. The supernatant was concentrated to dryness with nitrogen gas. The D5W vehicle (200 μL) was then added to the residue, and the solution was subjected to HPLC analysis.
We established the plasma concentration-time profile. The area under the plasma concentration-time profile (AUC) and other pharmacokinetic parameters (peak concentration: C max; time to reach C max: T max; area under the moment curve: AUMC; volume of distribution: V D) were calculated using the log-linear trapezoidal rule. […] Terminal half-life (t 1/2) was compartment model-independently estimated. Data analysis was performed using Microsoft Excel, and data were represented as mean ± standard deviation (SD) for n experiments. Treatment differences were evaluated by the paired t-test.

Data set [2] is described as follows: Identification of TW01003 metabolites in pig urine after i.v. administration (HPLC, sulfatase treatment). The note with it: i.v. TW01003 200 mg, urine 60 min after dosing. Format: in vivo. The text has this: Crossbred 3-4-month-old pigs weighing 40–50 kg, obtained from the Animal Technology Institute, Taiwan (Miaoli, Taiwan), were used in a preliminary metabolic study for establishing the HPLC analytical method for the identification of TW01003 and its metabolites. The phase II conjugate TW01003 sulfate was first isolated from pig urine as an authentic sample for analysis. Male Wistar rats (200–250 g) for pharmacokinetic studies were purchased from the Laboratory Animal Center of National Taiwan University (Taipei, Taiwan). The animals were pathogen free and allowed to acclimate to the environmentally controlled quarters (24 ± 1°C and 12 : 12 h light-dark cycle) for at least 5 days before the experiments. Animal studies were conducted in accordance with the Guide for the Care and Use of Laboratory Animals.
In order to establish a feasible analytical method for the identification of TW01003 metabolites in a biological system, a test solution containing 200 mg of TW01003 was first injected into a 40–50 kg pig. Fresh urine (1 mL) was collected 60 min after dosing, filtered through a 0.22 μm Millipore filter, and subjected to HPLC analysis. Typical HPLC chromatograms of urine sample of untreated pig (Figure 2(a)), urine samples upon i.v. dosing of TW01003 (Figure 2(b)), and urine samples after sulfatase treatment (Figure 2(c)) are depicted.

Data set [3] is described as follows: Metabolic study of TW01003 in a rat after i.v. administration (plasma, enzymatic treatment, HPLC). Format: in vivo. Here is the method: Single-dose TW01003 in a solution (1 mL) containing a 9 : 1 (v/v) ratio of vehicle V : 10% Na2CO3(aq) was used for animal studies in pig or in male Wistar rats. For metabolic studies, the TW01003 test solution was administered intravenously (7 mg/kg, n = 1) to the tail vein or orally (36 mg/kg, n = 1) by a feeding tube. For pharmacokinetic studies, the test solution was administered intravenously to the tail vein of Wistar rats (2.0 mg/kg, 1 mL, n = 6). The rats were put under a heating lamp to maintain body temperatures at 37°C throughout the experiment. All procedures involving the use of animals were approved by the Institutional Animal Care and Use Committee of Taipei Medical University. Blood samples (0.5 mL) were withdrawn from the carotid artery of rats at time intervals of 5, 15, 30, 45, 60, 90, 120, 180, and 240 min. Heparin sodium (25 IU/mL in 0.3 mL of saline) was added, and the blood samples were centrifuged (5,585 g) at 4°C for 8 min. The plasma was frozen immediately and kept at −78°C until analysis. The plasma sample (150 μL) was mixed with a sulfatase solution (200 IU/mL, 50 μL) at 37°C for 2 h. The plasma sample (150 μL) mixed with 50 μL of a buffer solution (pH 5.0) was used for the control group. The internal standard solution was then added, and the solution was centrifuged (5,585 g) for 10 min. The supernatant was concentrated to dryness with nitrogen gas. […]

Data set [4] concerns vascular endothelial growth factor- (VEGF-) induced angiogenesis. In words: Matrigel with VEGF-induced angiogenesis after oral treatment in mice. Format: in vivo. To be noted: oral TW01003 3 mg/kg, unpublished data.
Data set [5] in a line: Preliminary pharmacokinetic study, oral administration to rats. The note with it: unpublished data. Format: in vivo.
Data set [6] relates to 60 human disease-oriented cancer cell panel. On the set-up: method as in PMID 23567646. To be noted: cited from earlier work.

With `O=c1[nH]/c(=C\c2ccc(OS(=O)(=O)O)cn2)c(=O)[nH]/c1=C\c1ccccc1` [TW01003 sulfate], in data set [1] (i.v. TW01003, n = 6), the “clearance rate relative to TW01003” value was 2.3 times lower, the “residence time (MRTINF) relative to TW01003” value is “seven times longer”, the “systemic exposure (AUCINF) relative to TW01003” value amounted to 2.5 times higher and the “volume of distribution relative to TW01003” value is “three times higher”. In data set [1], this molecule gave a Cmax of 1310 ± 640 ng/mL, an MRT inf of 1.44 ± 0.33 h, a Vd of 4.43 ± 1.52 L/kg and a clearance of 51.3 mL/min/kg. In data set [1], this molecule had a half-life of 1.31 ± 0.22 h, an AUMCINF of 1.01 ± 0.36 h∗h∗μg/mL, an AUCINF of 0.71 ± 0.25 h∗μg/mL and an AUCall of 0.52 ± 0.20 h∗μg/mL. Besides, the “metabolite found in pig urine” value in data set [2] is “major metabolite”. For the same molecule, in data set [3] (Wistar rat, i.v. TW01003 6.7 mg/kg, n = 1), the “metabolite in rat plasma after i.v. administration” value is given as “major metabolite”.
In data set [1], `O=c1[nH]/c(=C/c2ccc(O)cn2)c(=O)[nH]/c1=C/c1ccccc1` [TW01003, (3E,6E)-3-Benzylidene-6-[(5-hydroxypyridin-2-yl)methylene]piperazine-2,5-dione] showed a Cmax of 2200 ± 250 ng/mL, an MRT inf of 0.2 ± 0.06 h, a volume of distribution (Vd) of 1.41 ± 0.41 L/kg and a clearance of 118 mL/min/kg. In data set [1], this molecule gave a half-life of 0.76 ± 0.14 h, an AUMCINF of 0.06 ± 0.02 h∗h∗μg/mL, an AUCINF of 0.29 ± 0.04 h∗μg/mL and an AUCall of 0.28 ± 0.04 h∗μg/mL. The “hemoglobin count of the matrigel reduced to” value in data set [4] is recorded as less than 1%. The molecule also displayed an oral fraction absorbed in data set [5] of 1.72%. Moreover, in data set [3] (rat, i.v. 6.7 mg/kg or oral 36.0 mg/kg, regardless of administration method), the clearance in words result was “cleared fairly rapidly”. Also, the “antitumor activity in words” value in data set [6] was “broad spectrum of antitumor activities”.
